Assay results: patent publication US4447422A, “Penicillins and compositions containing them” (Beecham Group p.1.c., priority 1981, dated 1984)
≈ marks a conversion by molar mass, not a printed value. Counter-ions that a name gives are not always drawn.

Tests used:
Staph aureus Oxford = experiment: antibacterial activity (MIC); format: cell-based; conditions: Staphylococcus aureus; Table 2; gram positive organism Staph. aureus Oxford; read-out: MIC
E coli NCTC 10418 = experiment: antibacterial activity (MIC); format: cell-based; conditions: Escherichia coli, NCTC10418; Table 2; gram negative organism E. coli NCTC 10418

Row | MIC (Staph aureus Oxford) | MIC (E coli NCTC 10418) | Structure (SMILES)
1 | 2.5 µg/mL | 5 µg/mL | CCCCNc1ncc(C(=O)N[C@@H](C(=O)N[C@@H]2C(=O)N3[C@@H]2SC(C)(C)[C@@H]3C(=O)O)c2ccc(O)cc2)c(O)n1 [Example 17, 6β-[D-2-(2-n-Butylamino-4-hydroxypyrimidine-5-carbonylamino)-2-(4-hydroxyphenyl)] acetamido penicillanic acid, disodium salt]
2 | 0.2 µg/mL | 2.5 µg/mL | CC1(C)S[C@@H]2[C@H](NC(=O)[C@H](NC(=O)c3cnc(NC(=O)OCc4ccccc4)nc3O)c3ccccc3)C(=O)N2[C@H]1C(=O)O [Example 25, 6β-D-2-(2-benzyloxycarbonylamino-4-hydroxypyrimidine-5-carbonylamino-2-phenyl] acetamido penicillanic acid, disodium salt]
3 | 1.2 µg/mL | 2.5 µg/mL | CCSCCNc1ncc(C(=O)N[C@@H](C(=O)N[C@@H]2C(=O)N3[C@@H]2SC(C)(C)[C@@H]3C(=O)O)c2ccc(O)cc2)c(O)n1 [Example 14, 6β-[D-2-(2-[2-(ethylthio)ethyl-1-amino]-4-hydroxypyrimidine-5-carbonylamino)-2-(4-hydroxyphenyl)]acetamidopenicillanic acid, disodium salt]
4 | 0.5 µg/mL | 2.5 µg/mL | CCCNc1ncc(C(=O)N[C@@H](C(=O)N[C@@H]2C(=O)N3[C@@H]2SC(C)(C)[C@@H]3C(=O)O)c2ccccc2)c(O)n1 [Example 15, 6β-[D-2-(2-n-propylamino-4-hydroxypyrimidine-5-carbonylamino)-2-phenyl] acetamido penicillanic acid, disodium salt]
5 | 1.2 µg/mL (≈ 1.98 µM) | 5 µg/mL (≈ 8.24 µM) | CC1(C)S[C@@H]2[C@H](NC(=O)[C@H](NC(=O)c3cnc(NCCc4ccccc4)nc3O)c3ccc(O)cc3)C(=O)N2[C@H]1C(=O)O [Example 5, 6β-[D-2-(2-(2-phenylethyl-1-amino)-4-hydroxypyrimidine-5-carbonylamino)-2-(4-hydroxyphenyl)] acetamido penicillanic acid]
6 | 1.2 µg/mL | 10 µg/mL | COc1cc(CNc2ncc(C(=O)N[C@@H](C(=O)N[C@@H]3C(=O)N4[C@@H]3SC(C)(C)[C@@H]4C(=O)O)c3ccccc3)c(O)n2)ccc1O [Example 8, 6β-[D-2-(2[4-Hydroxy-3-methoxybenzylamino]-4-hydroxypyrimidine-5-carbonylamino)-2-phenyl] acetamido penicillanic acid, disodium salt]
7 | 0.5 µg/mL | 5 µg/mL | CCCC(=O)Nc1ncc(C(=O)N[C@@H](C(=O)N[C@@H]2C(=O)N3[C@@H]2SC(C)(C)[C@@H]3C(=O)O)c2ccccc2)c(O)n1 [Example 22, 6β-[D-2-(2-n-butyrylamino-4-hydroxypyrimidine-5-carbonylamino)-2-phenyl] acetamido penicillanic acid, disodium salt]
8 | 0.5 µg/mL | 5 µg/mL | CC(C)COC(=O)Nc1ncc(C(=O)N[C@@H](C(=O)N[C@@H]2C(=O)N3[C@@H]2SC(C)(C)[C@@H]3C(=O)O)c2ccccc2)c(O)n1 [Example 24, 6β-D-2-(2-Isobutyloxycarbonylamino-4-hydroxypyrimidine-5-carbonylamino)-2-phenyl]acetamido penicillanic acid, disodium salt]
9 | 0.25 µg/mL | 5 µg/mL | COc1ccc(CNc2ncc(C(=O)N[C@@H](C(=O)N[C@@H]3C(=O)N4[C@@H]3SC(C)(C)[C@@H]4C(=O)O)c3ccccc3)c(O)n2)cc1 [Example 9, 6β-[D-2-(2-[4-Methoxybenzylamino]-4-hydroxypyrimidine-5-carbonylamino)-2-phenyl] acetamido penicillanic acid, disodium salt]
10 | 0.5 µg/mL | 5 µg/mL | CC1(C)S[C@@H]2[C@H](NC(=O)[C@H](NC(=O)c3cnc(NC(=O)c4ccccc4)nc3O)c3ccccc3)C(=O)N2[C@H]1C(=O)O [Example 23, 6β-[D-2-(2-benzoylamino-4-hydroxypyrimidine-5-carbonylamino)-2-phenyl] acetamido penicillanic acid, disodium salt]
11 | 0.5 µg/mL | 5 µg/mL | COCCNc1ncc(C(=O)N[C@@H](C(=O)N[C@@H]2C(=O)N3[C@@H]2SC(C)(C)[C@@H]3C(=O)O)c2ccccc2)c(O)n1 [Example 13, 6β-[D-2-(2-Methoxyethyl-1-amino]-4-hydroxypyrimidine-5-carbonylamino)-2-phenyl] acetamido penicillanic acid, disodium salt]
12 | 1.2 µg/mL | 5 µg/mL | CC1(C)S[C@@H]2[C@H](NC(=O)[C@H](NC(=O)c3cnc(NCc4ccco4)nc3O)c3ccccc3)C(=O)N2[C@H]1C(=O)O [Example 10, 6β-[D-2-(2-Furfurylamino-4-hydroxypyrimidine-5-carbonylamino)-2-phenyl] acetamido penicillanic acid, disodium salt]
13 | 1.2 µg/mL | 5 µg/mL | COCCCNc1ncc(C(=O)N[C@@H](C(=O)N[C@@H]2C(=O)N3[C@@H]2SC(C)(C)[C@@H]3C(=O)O)c2ccccc2)c(O)n1 [Example 12, 6β-[D-2-(2-[3-methoxypropyl-1-amino]-4-hydroxypyrimidine-5-carbonylamino)-2-phenyl] acetamido penicillanic acid, disodium salt]
14 | 1.2 µg/mL (≈ 1.98 µM) | 5 µg/mL (≈ 8.27 µM) | CC1(C)S[C@@H]2[C@H](NC(=O)[C@H](NC(=O)c3cnc(NCCCc4ccccc4)nc3O)c3ccccc3)C(=O)N2[C@H]1C(=O)O [Example 3, 6β-[D-2-(2-(3-phenylpropyl-1-amino)-4-hydroxypyrimidine-5-carbonylamino)-2-phenyl] acetamido penicillanic acid]
15 | 2.5 µg/mL | 10 µg/mL | CC1(C)S[C@@H]2[C@H](NC(=O)[C@H](NC(=O)c3cnc(NCc4ccc(S(N)(=O)=O)cc4)nc3O)c3ccccc3)C(=O)N2[C@H]1C(=O)O [Example 7, 6β-[D-2-(2-[4-sulphonamidobenzylamino]-4-hydroxypyrimidine-5-carbonylamino)-2-phenyl]acetamido penicillanic acid, disodium salt]
16 | 0.2 µg/mL | 5 µg/mL | C=CCNc1ncc(C(=O)N[C@@H](C(=O)N[C@@H]2C(=O)N3[C@@H]2SC(C)(C)[C@@H]3C(=O)O)c2ccccc2)c(O)n1 [Example 21, 6β-[D-2-(2-Allylamino-4-hydroxypyrimidine-5-carbonylamino)2-phenyl] acetamido penicillanic acid, disodium salt]
17 | 0.2 µg/mL (≈ 0.327 µM) | 5 µg/mL (≈ 8.18 µM) | CC1(C)S[C@@H]2[C@H](NC(=O)[C@H](NC(=O)c3cnc(NCc4ccc(Cl)cc4)nc3O)c3ccccc3)C(=O)N2[C@H]1C(=O)O [Example 6, 6β-D-[2-(2-[4Chlorobenzylamino]-4-hydroxypyrimidine-5-carbonylamino)-2-phenyl] acetamido penicillanic acid]
18 | 0.5 µg/mL | 1.2 µg/mL | CCCCCCNc1ncc(C(=O)N[C@@H](C(=O)N[C@@H]2C(=O)N3[C@@H]2SC(C)(C)[C@@H]3C(=O)O)c2ccccc2)c(O)n1 [Example 19, 6β-[D-2-(2-n-hexylamino-4-hydroxypyrimidine-5-carbonylamino)-2-phenyl] acetamido penicillanic acid, disodium salt]
19 | 1.25 µg/mL | 1.25 µg/mL | CCCCCNc1ncc(C(=O)N[C@@H](C(=O)N[C@@H]2C(=O)N3[C@@H]2SC(C)(C)[C@@H]3C(=O)O)c2ccccc2)c(O)n1 [Example 18, 6β-[D-2-(2-n-Pentylamino-4-hydroxypyrimidine-5-carbonylamino)-2-phenyl] acetamido penicillanic acid, disodium salt]
